From patent publication US20230096517A1, “GLUTARIMIDE SKELETON-BASED COMPOUNDS AND APPLICATION THEREOF” (SHANGHAITECH UNIVERSITY, priority 2020, published 2023)

These compounds were tested on MM.1S cells (assay: Proliferation inhibition (IC50) in multiple myeloma cells, cell viability with WST/CCK-8 reagent). Settings: Homo sapiens, MM1.S, 72 h, read-out: IC50 (half inhibitory concentration).
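Further: MM.1S B-lymphoblast cells at 15,000 per well in 100 µL serum-containing RPMI1640, experiment run more than three times.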
Protocol: Multiple myeloma cell line: MM.1S (B lymphoblast), purchased from ATCC (American Type Culture Collection). Culture medium was RPMI1640 supplemented with 10% FBS and 1% Penicillin-Streptomycin. The cells used were identified as correct cells by STR cells and negative for mycoplasma by routine inspections.
IC50 values of the compounds of the present disclosure were measured using Cell Titer Blue, Cell Titer GLO, or WST reagent from Promega Company. Assay details are as follows: Cells were seeded in 100 μL RPMI1640 complete medium containing serum at a density of 15,000 cells/well.
The experiment was repeated more than three times.

Compound | IC50 [nM]
O=C1CCC(N2C(=O)c3cccc(OCc4ccc(CCNC56CC7CC(CC(C7)C5)C6)cc4)c3C2=O)C(=O)N1 (stereo not shown) [SIAIS1241167, 4-((4-(2-((adamantan-1-yl)amino)ethyl)benzyl)oxy)-2-(2,6-dioxopiperidin-3-yl)isoindoline-1,3-dione] | 1.95
O=C1CCC(N2C(=O)c3cccc(OCCCCCCCNC45CC6CC(CC(C6)C4)C5)c3C2=O)C(=O)N1 (stereo not shown) [SIAIS1221077, 4-((7-((adamantan-1-yl)amino)heptyl)oxy)-2-(2,6-dioxopiperidin-3-yl)isoindoline-1,3-dione] | 5.53
O=C1CCC(N2Cc3c(NCCCCCCCN4CCCCC4)cccc3C2=O)C(=O)N1 (stereo not shown) [SIAIS1220125, 3-(1-oxo-4-((7-(piperidin-1-yl)heptyl)amino)isoindolin-2-yl)piperidine-2,6-dione, reference compound] | 697
O=C1CCC(N2Cc3c(C#CCCCCCCNC45CC6CC(CC(C6)C4)C5)cccc3C2=O)C(=O)N1 (stereo not shown) [SIAIS1221095, 3-(4-(8-((adamantan-1-yl)amino)oct-1-yn-1-yl)-1-oxoisoindolin-2-yl)piperidine-2,6-dione] | 2.21
O=C1CCC(N2C(=O)c3cccc(NCc4ccc(CNC56CC7CC(CC(C7)C5)C6)cc4)c3C2=O)C(=O)N1 (stereo not shown) [SIAIS1222035, 4-((4-(((adamantan-1-yl)amino)methyl)benzyl)amino)-2-(2,6-dioxopiperidin-3-yl)isoindoline-1,3-dione] | 2.46
O=C1CCC(N2C(=O)c3cccc(NCCCCCCNC45CC6CC(CC(C6)C4)C5)c3C2=O)C(=O)N1 (stereo not shown) [SIAIS1222093, 4-((6-((adamantan-1-yl)amino)hexyl)amino)-2-(2,6-dioxopiperidin-3-yl)isoindoline-1,3-dione] | 1.58
CC(NCCCCCCCNc1cccc2c1C(=O)N(C1CCC(=O)NC1=O)C2=O)C12CC3CC(CC(C3)C1)C2 (stereo not shown) [SIAIS1222193] | 2.69
O=C1CCC(N2Cc3c(NCCCCCCCNC45CC6CC(CC(C6)C4)C5)cccc3C2=O)C(=O)N1 (stereo not shown) [SIAIS1221091, 3-(4-((7-((adamantan-1-yl)amino)heptyl)amino)-1-oxoisoindolin-2-yl)piperidine-2,6-dione] | 1.51
O=C1CCC(N2Cc3c(CCc4ccc(CNCC56CC7CC(CC(C7)C5)C6)cc4)cccc3C2=O)C(=O)N1 (stereo not shown) [SIAIS1222053, 3-(4-(4-((((adamantan-1-yl)methyl)amino)methyl)phenethyl)-1-oxoisoindolin-2-yl)piperidine-2,6-dione] | 1.61

Compounds with a lower IC50, results first:

IC50 [nM] | Compound
1.2 | CC1(C)[C@@H]2CC[C@@]1(C)[C@@H](NCCCCCCCOc1cccc3c1CN(C1CCC(=O)NC1=O)C3=O)C2 (stereo partly drawn) [SIAIS1221189, 3-(1-oxo-4-((7-(((1R,2S,4R)-1,7,7-trimethylbicyclo[2.2.1]heptan-2-yl)amino)heptyl)oxy)isoindolin-2-yl)piperidine-2,6-dione]
1.11 | O=C1CCC(N2Cc3c(CCCCCCCNC45CC6CC(CC(C6)C4)C5)cccc3C2=O)C(=O)N1 (stereo not shown) [SIAIS1224041, 3-(4-(7-((adamantan-1-yl)amino)heptyl)-1-oxoisoindolin-2-yl)piperidine-2,6-dione]
1.09 | CC1(C)[C@@H]2CC[C@@]1(C)[C@@H](NCc1ccc(CNc3cccc4c3C(=O)N(C3CCC(=O)NC3=O)C4=O)cc1)C2 (stereo partly drawn) [SIAIS1221173, 2-(2,6-dioxopiperidin-3-yl)-4-((4-((((1R,2S,4R)-1,7,7-trimethylbicyclo[2.2.1]heptan-2-yl)amino)methyl)benzyl)amino)isoindoline-1,3-dione]
0.781 | O=C1CCC(N2Cc3c(CCCCCCCNCC45CC6CC(CC(C6)C4)C5)cccc3C2=O)C(=O)N1 (stereo not shown) [SIAIS1222021, 3-(4-(7-(((adamantan-1-yl)methyl)amino)heptyl)-1-oxoisoindolin-2-yl)piperidine-2,6-dione]
0.326 | O=C1CCC(N2C(=O)c3cccc(NCCCCCCCNC4CCCCC4)c3C2=O)C(=O)N1 (stereo not shown) [SIAIS1222039, 4-((7-(cyclohexylamino)heptyl)amino)-2-(2,6-dioxopiperidin-3-yl)isoindoline-1,3-dione]
0.27 | CN(CCCCCCCCc1cccc2c1CN(C1CCC(=O)NC1=O)C2=O)C12CC3CC(CC(C3)C1)C2 (stereo not shown) [SIAIS1222031, 3-(4-(8-((adamantan-1-yl)(methyl)amino)octyl)-1-oxoisoindolin-2-yl)piperidine-2,6-dione]
0.241 | O=C1CCC(N2C(=O)c3cccc(NCCCCCCC(=O)NC45CC6CC(CC(C6)C4)C5)c3C2=O)C(=O)N1 (stereo not shown) [SIAIS1242077, N-(adamantan-1-yl)-7-((2-(2,6-dioxopiperidin-3-yl)-1,3-dioxoisoindolin-4-yl)amino)heptanamide]
0.239 | CC1(C)[C@@H]2CC[C@@]1(C)[C@@H](NCc1ccc(CCc3cccc4c3CN(C3CCC(=O)NC3=O)C4=O)cc1)C2 (stereo partly drawn) [SIAIS1222055, 3-(1-oxo-4-(4-((((1R,2S,4R)-1,7,7-trimethylbicyclo[2.2.1]heptan-2-yl)amino)methyl)phenethyl)isoindolin-2-yl)piperidine-2,6-dione]
0.204 | O=C1CCC(N2Cc3c(OCCCCCCNCC45CC6CC(CC(C6)C4)C5)cccc3C2=O)C(=O)N1 (stereo not shown) [SIAIS1222165, 3-(4-((6-(((adamantan-1-yl)methyl)amino)hexyl)oxy)-1-oxoisoindolin-2-yl)piperidine-2,6-dione]
0.13 | O=C1CCC(N2C(=O)c3cccc(NCCCCCCNCC45CC6CC(CC(C6)C4)C5)c3C2=O)C(=O)N1 (stereo not shown) [SIAIS1222037, 4-((6-(((adamantan-1-yl)methyl)amino)hexyl)amino)-2-(2,6-dioxopiperidin-3-yl)isoindoline-1,3-dione]
0.107 | O=C1CCC(N2Cc3c(NCc4ccc(CCNC56CC7CC(CC5C7)C6)cc4)cccc3C2=O)C(=O)N1 (stereo not shown) [SIAIS1242061, 3-(4-((4-(2-((hexahydro-2,5-methanopentalen-3a(1H)-yl)amino)ethyl)benzyl)amino)-1-oxoisoindolin-2-yl)piperidine-2,6-dione]
0.069 | O=C1CCC(N2Cc3c(OCCCCCCCNC45CC6CC(CC4C6)C5)cccc3C2=O)C(=O)N1 (stereo not shown) [SIAIS1242043, 3-(4-((7-((hexahydro-2,5-methanopentalen-3a(1H)-yl)amino)heptyl)oxy)-1-oxoisoindolin-2-yl)piperidine-2,6-dione]
0.044 | O=C1CCC(N2Cc3c(CCCCCCCCNC45CC6CC(CC(C6)C4)C5)cccc3C2=O)C(=O)N1 (stereo not shown) [SIAIS1221105, 3-(4-(8-((adamantan-1-yl)amino)octyl)-1-oxoisoindolin-2-yl)piperidine-2,6-dione]
